Data on eight compounds can be found in ChEMBL document CHEMBL1151090, “Synthesis of racemic 2-phosphonomethyl-1,3-dioxolane nucleoside analogues as potential antiviral agents” (Bioorg Med Chem Lett, 1995).

SMILES strings stand for the structures. Where only a bound is given, the exact number is not on record here.

Assay [1] relates to MT4. The experiment in a line: Inhibitory activity of compound was determined against HIV-1 replication in MT-4 cells; weak activity. In kind it is functional, cell-based. The conditions noted are these: Homo sapiens.
The test system of assay [2] is MT4. The experiment in a line: Inhibitory activity of compound was determined against HIV-1 replication in MT-4 cells; […]. The conditions noted are these: Homo sapiens. In kind it is functional, cell-based.
For assay [3], the system named is MT4. The experiment in a line: Inhibitory activity against HIV-1 replication in MT-4 cells; not cytotoxic. The conditions noted are these: Homo sapiens. The format is functional, cell-based.
Assay [4] relates to MT4. The experiment in a line: Inhibitory activity against HIV-1 replication in MT-4 cells; Not cytotoxic. The conditions noted are these: Homo sapiens. In kind it is functional, cell-based.
The subject of assay [5] is MT4. The experiment in a line: Compound was tested for its […] in MT-4 cells. The format is functional. The conditions noted are these: Homo sapiens, read-out: CD50 (the source's name).
The subject of assay [6] is MT4. The experiment in a line: Inhibitory activity of compound was determined against HIV-1 replication in MT-4 cells. In kind it is functional, cell-based. Particulars: Homo sapiens.

For orientation: EC50 means the midpoint of the concentration-response curve. Lower therefore signals an effect from little substance. Take `CC(=O)Nc1ccn(C2COC(CP(=O)(O)O)O2)c(=O)n1` (stereo not given): the 50% effective concentration (EC50) in assay [1] amounted to 312 µM. As a reminder, the IC50 is the concentration that inhibits the measured activity by half. Read a low IC50 as greater potency. In the case of `Nc1ccn([C@H]2CO[C@H](CP(=O)(O)O)O2)c(=O)n1`, the EC50 in assay [2] was greater than 332 µM. The compound also gave a 50% inhibitory concentration (IC50) in assay [3] greater than 332 µM. `Cc1cn([C@H]2CO[C@@H](CP(=O)(O)O)O2)c(=O)[nH]c1=O` came in with an EC50 in assay [2] greater than 332 µM. The compound also had an IC50 in assay [3] greater than 332 µM. In turn, `Cc1cn([C@H]2CO[C@H](CP(=O)(O)O)O2)c(=O)[nH]c1=O` returned an EC50 in assay [2] greater than 332 µM. The IC50 in assay [3] is greater than 332 µM. On to `Nc1nc(O)c2ncn([C@H]3CO[C@H](CP(=O)(O)O)O3)c2n1`, for which the EC50 in assay [2] was greater than 332 µM. The compound further had an IC50 in assay [4] greater than 332 µM. Compound `Nc1ccn([C@H]2CO[C@@H](CP(=O)(O)O)O2)c(=O)n1` returned an EC50 in assay [2] of 312 µM. This compound showed an IC50 in assay [3] greater than 332 µM.

`Nc1nc(O)c2ncn([C@H]3CO[C@@H](CP(=O)(O)O)O3)c2n1` yielded an EC50 in assay [2] greater than 332 µM. This compound also had an IC50 in assay [3] greater than 332 µM. On to `Cc1cn(C2COC(CO[PH](=O)O)O2)c(=O)[nH]c1=O` (stereo not given), for which the CC50 in assay [5] came to 342 µM. In assay [6], this compound came in with an EC50 of 51 µM.
